Reference: patent publication US12565485B2, “Solid forms of 1-((S)-4-((R)-7-(6-amino-4-methyl-3-(trifluoromethyl)pyridin-2-yl)-6-chloro-8-fluoro-2-(((s)-1-methylpyrrolidin-2-yl)methoxy)quinazolin-4-yl)-3-methylpiperazin-1-yl)prop-2-en-1-one” (Genentech, Inc., priority 2022, dated 2026)

What was measured:
Assay type in all cases: physicochemical
[1] = Slurry conversion experiments (XRPD of isolated solids); details: for Slurry conversion result (XRPD form): different solvent systems
Description: Slurry conversion experiments were conducted at RT in different solvent systems. About 15˜20 mg of freebase starting material (Compound 1) was suspended in 0.5 mL of solvent in an HPLC vial. Solids were isolated for XRPD analysis after magnetically stirring at RT.
Slurry at 5°. Slurry conversion experiments were conducted at 5° C. in different solvent systems. About 15˜20 mg of freebase starting material (Compound 1) was suspended in 0.5 mL of solvent in an HPLC vial. Solids were isolated for XRPD analysis after magnetically stirring at 5° C.
Slurry at 50°. Slurry conversion experiments were conducted at 50° C. in different solvent systems. About 20 mg of freebase starting material (Compound 1) was suspended in 0.5 mL of solvent in an HPLC vial. Solids were isolated for XRPD analysis after magnetical stirring at 50° C.
Slurry at RT for Compound A. Slurry conversion experiments were conducted at RT in different solvent systems. […] Solids were isolated for XRPD analysis after magnetic stirring at RT.
Slurry at 50° for Compound A. Slurry conversion experiments were conducted at 50° C. in different solvent systems. […] Solids were isolated for XRPD analysis after magnetic stirring at 50° C.

Liquid vapor diffusion = details: Compound A, RT
Description: (§1) Liquid vapor diffusion. Liquid vapor diffusion experiments were conducted in different solvent systems. […] This solution was then placed into a 20-mL vial with 3 mL of corresponding anti-solvent. The 20-mL vial was sealed with a cap and kept at RT allowing sufficient time for organic vapor to interact with the solution. The precipitates were isolated for XRPD analysis.
as §1, with “diffusion Compound A.” for “diffusion.”

Solid vapor diffusion = details: RT; for Result: Compound A
Description: Solid vapor diffusion Compound A. Solid vapor diffusion experiments were conducted using 12 different solvents. […] The 20-mL vial was sealed with a cap and kept at RT allowing solvent vapor to interact with the sample.

[2] = VH-XRPD analysis / transitions of forms at varying relative humidity; details: ambient humidity levels 40%
Source text: FIG. 19. The sample then reverts to the original form upon reaching 30% RH. […] Transitions of Forms of Compound A at varying RH.

Slow evaporation = details: Compound A, evaporation at RT
Description: Slow evaporation. Slow evaporation experiments were performed under 10 conditions. Briefly, about 15˜20 mg of freebase starting material (810935-01-A) was dissolved in 0.5˜1.0 mL of solvent in a 3-mL glass vial.
Slow evaporation Compound A. Slow evaporation experiments were performed under seven conditions.

[3] = Form change before and after drying (XRPD)
Description: The wet sample was vacuum dried at RT for 3 hrs. […] A solid was obtained with a yield of 62.2%. […] (peak temperature). Based on the integrals in NMR spectrum, the stoichiometric ratio of adipic acid:freebase was determined to be 1.06. A peak of EtOAc was observed. Around 0.07 molar EtOAc (0.8 wt %) was detected, which was consistent with TGA weight loss.
(peak), and one small endotherm at 158.8° C. […] Based on the integrals, the stoichiometric ratio of adipic acid:freebase was determined to be 1.65.
(peak temperature). Based on the integrals, the stoichiometric ratio of adipic acid:freebase was determined to be 1.06. Peak of THF was observed. Around 0.17 molar THF (1.9 wt %) was detected, which was consistent with TGA weight loss.
Compound B Form A was obtained from an acetone system and the sample was air dried at RT. […] (peak temperature) before the possible overlapped peak with peak temperature at 156.3° C. (FIG. 12). Based on the integrals, the stoichiometric ratio of fumaric acid:freebase was determined to be 1.03. A peak of acetone was observed and approximately 0.49 molar acetone (4.4 wt %) was detected. The HPLC purity of Compound B Form A was determined to be 93.56 area %. […] Around 0.39 molar acetone (3.5 wt %) was still detected. One endotherm at 58.7° C. and an overlapped peak with peak temperature at 157.1° C. were still observed on the sample obtained after heating. The first endotherm might be caused by re-adsorption of moisture. Since ˜3.5 wt % acetone was still detected from NMR, Compound B Form A is expected to be an acetone/H2O co-solvate.
Compound C Form A was obtained from EtOAc system and the sample was air dried at RT. […] HPLC purity of Compound C Form A was determined to be 95.18 area %.

In the case of `C=CC(=O)N1CCN(c2nc(OC[C@@H]3CCCN3C)nc3c(F)c(-c4nc(N)cc(C)c4C(F)(F)F)c(Cl)cc23)[C@@H](C)C1` [Compound A Form A], the “Slurry conversion result (XRPD form)” value ([1]; 50° C.) is reported as “Compound A Form A was obtained”, the Result ([1]; Compound A slurry at 50° C., Anisole) is reported as “Compound A Form A” and the Result ([1]; Compound A slurry at 50° C., CPME) is reported as “Compound A Form A”. For the same compound, the Result ([1]; Compound A slurry at 50° C., EtOAc) was “Compound A Form A”, the Result ([1]; Compound A slurry at 50° C., IPAc) was “Compound A Form A” and the Result ([1]; Compound A slurry at 50° C., MIBK) was “Compound A Form A”. The Result ([1]; Compound A slurry at 50° C., MTBE) was “Compound A Form A”, the Result ([1]; Compound A slurry at 50° C., Toluene) was “Compound A Form A” and the Result ([1]; Compound A slurry at 50° C., n-Heptane) was “Compound A Form A”. The Result ([1]; Compound A slurry at RT, 1,4-Dioxane) was “Compound A Form A”, the Result ([1]; Compound A slurry at RT, 1,4-Dioxane/IPAc, 1:3) was “Compound A Form A” and the Result ([1]; Compound A slurry at RT, 1,4-Dioxane/n-Heptane, 1:3) was “Compound A Form A”. For the same compound, the Result ([1]; Compound A slurry at RT, 2-MeTHF/Toluene, 1:4) was “Compound A Form A”, the Result ([1]; Compound A slurry at RT, ACN) was “Compound A Form A” and the Result ([1]; Compound A slurry at RT, Acetone) was “Compound A Form A”. For the same compound, the Result ([1]; Compound A slurry at RT, Acetone/Anisole, 1:3) was “Compound A Form A”, the Result ([1]; Compound A slurry at RT, Acetone/n-Heptane, 1:3) was “Compound A Form A” and the Result ([1]; Compound A slurry at RT, DCM/IPA, 1:4) was “Compound A Form A”. For the same compound, the Result ([1]; Compound A slurry at RT, DMSO/H2O, 1:6) was “Clear solution”, the Result ([1]; Compound A slurry at RT, EtOH/n-Heptane, 1:6) was “Compound A Form A” and the Result ([1]; Compound A slurry at RT, H2O) was “Clear solution”. The Result ([1]; Compound A slurry at RT, H2O/ACN, 1:4) was “Gel”, the Result ([1]; Compound A slurry at RT, H2O/IPA, 1:4) was “Gel” and the Result ([1]; Compound A slurry at RT, IPA) was “Compound A Form A”. The Result ([1]; Compound A slurry at RT, MEK) was “Compound A Form A”, the Result ([1]; Compound A slurry at RT, MEK/MTBE, 1:3) was “Compound A Form A” and the Result ([1]; Compound A slurry at RT, MEK/n-Heptane, 1:3) was “Compound A Form A”. For the same compound, the Result ([1]; Compound A slurry at RT, MeOH/CPME, 1:6) was “Compound A Form A”, the Result ([1]; Compound A slurry at RT, THF/H2O, 1:6) was “Clear solution” and the “Slurry conversion result (XRPD form)” value ([1]; RT) was “adipate Type A was obtained”. The Result (Liquid vapor diffusion; solvent DMSO, anti-solvent EtOAc) was “Clear solution”, the Result (Liquid vapor diffusion; solvent EtOH, anti-solvent MTBE) was “Gel” and the Result (Liquid vapor diffusion; solvent EtOH, anti-solvent n-Pentane) was “Gel”. The Result (Liquid vapor diffusion; solvent H2O, anti-solvent ACN) was “Gel”, the Result (Liquid vapor diffusion; solvent H2O, anti-solvent IPA) was “Gel” and the Result (Liquid vapor diffusion; solvent THF, anti-solvent MTBE) was “Gel”. The Result (Liquid vapor diffusion; solvent THF, anti-solvent n-Heptane) was “Amorphous”, the Result (Solid vapor diffusion; 1,4-Dioxane vapor) was “Compound A Form A” and the Result (Solid vapor diffusion; ACN vapor) was “Compound A Form A”. The Result (Solid vapor diffusion; Acetone vapor) was “Compound A Form A”, the Result (Solid vapor diffusion; DCM vapor) was “Compound A Form A” and the Result (Solid vapor diffusion; DMF vapor) was “Compound A Form A”. For the same compound, the Result (Solid vapor diffusion; DMSO vapor) was “Compound A Form A”, the Result (Solid vapor diffusion; EtOAc vapor) was “Compound A Form A” and the Result (Solid vapor diffusion; EtOH vapor) was “Compound A Form A”. The Result (Solid vapor diffusion; H2O vapor) was “Compound A Form A”, the Result (Solid vapor diffusion; IPA vapor) was “Compound A Form A” and the Result (Solid vapor diffusion; MeOH vapor) was “Compound A Form A”. The Result (Solid vapor diffusion; THF vapor) was “Compound A Form A”, the “Solid vapor diffusion result (XRPD form)” value (Solid vapor diffusion; 12 different solvents) was “Compound A Form A was obtained” and the “Form after exposure to ambient humidity” value [2] was “Compound A Form D was formed”. For the same compound, the Result (Slow evaporation; 2-MeTHF) was “Gel”, the Result (Slow evaporation; Acetone) was “Gel” and the Result (Slow evaporation; DCM) was “Gel”. For the same compound, the Result (Slow evaporation; EtOH) was “Gel”, the Result (Slow evaporation; H2O) was “Clear solution” and the Result (Slow evaporation; MeOH) was “Gel”. The Result (Slow evaporation; THF) was “Gel”, the “Form change before and after drying” value ([3]; air dried at RT) was “No form change was observed” and the “Form change before and after drying” value ([3]; vacuum dried at RT for 3 hrs) was “No form change was observed”.
